From patent publication US10888545B2, “Compositions and methods for treating estrogen-related medical disorders” (THE BOARD OF TRUSTEES OF THE UNIVERSITY OF ILLINOIS, priority 2012, dated 2021)
Where two headings read alike, the source gives them in different places.

Legend:
[1] = tested on: T47D/PKCα xenograft tumors; assay: T47D/PKCα TAM-resistant xenograft tumors (Example 11); assay type: in vivo, mice; details: TTC-352 or raloxifene 1.5 mg/day p.o., seven weeks, also after withdrawal; E2 capsule
uteri [2] = assay: Uterine weights of ovariectomized athymic mice (7 weeks); assay type: in vivo; details: following 7 weeks of treatment; 1.5 mg/day p.o. (E2: capsule)
T47D:A18/neo tumors = assay: T47D:A18/neo xenograft tumor growth; assay type: in vivo, mice; details: for T47D:A18/neo average tumor size: following seven weeks of treatment, 1.5 mg/day p.o. (E2: capsule); for stimulation of growth of T47D:A18/neo xenograft tumors in vivo: 1.5 mg/day p.o., seven weeks
[3] = silastic capsules (1.0 cm) implanted subcutaneously; reference 14; cited from earlier work
[4] = tested on: T47D-Tam1 xenograft tumors; assay: T47D-Tam1 TAM-resistant xenograft tumors (Example 11); assay type: in vivo, mice; details: TTC-352 1.5 mg/day p.o. daily for seven weeks; E2 capsule
T47D:A18/neo cells [5] = assay: Colony formation assay in […], T47D:A18/neo; assay type: cell-based; details: 3D culture, 10 days; E2 1 nM, BTC 100 nM, TTC-352 100 nM
Experimental: (§1) Colony formation assay in […] Matrix. […] (Becton Dickinson, Franklin Lakes, N.J. USA) was thawed overnight at 4° C. Twelve-well plates were coated with 200 μL […]/well and incubated at 37° C. for 30 min. Cells were suspended at 5×103 in 400 μL of phenol red-free RPMI 1640 and spread onto pre-gelled […] and allowed to incubate at 37° C. for 30 minutes, and 360 μL of treatment media containing 40 μL […] was then added. Plates were incubated at 37° C. for 10 days; medium containing 10% […] was replaced to the top of the […] every 3 days. Colonies were stained with crystal violet on day 10 and each well was counted by light microscopy (20×).
(§2) These concentrations were selected on the basis of proliferative effects in 2D cultures.

T47D:A18/PKCα cells [6] = assay: Colony formation assay in […], T47D:A18/PKCα; assay type: cell-based; details: 3D culture, 10 days; E2 1 nM, BTC 100 nM, TTC-352 100 nM
Experimental: as §1, §2

T47D:A18/PKCα tumors = assay: T47D:A18/PKCα xenograft tumor regression; assay type: in vivo, mice; details: for T47D:A18/PKCα tumor regression / T47D:A18/PKCα mean tumor size: at two weeks; for T47D:A18/PKCα tumor regression: 1.5 mg/day p.o. (E2: capsule), start ~0.5 cm^2 = 100%; for persistence of T47D:A18/PKCα tumor regression after end of treatment: after two weeks of 1.5 mg/day p.o.; for T47D:A18/PKCα mean tumor size: 1.5 mg/day p.o.
[7] = tested on: ERα transcriptional activity in T47D:A18/neo cells; assay type: cell-based
[8] = Body weights of mice bearing T47D:A18/neo tumors; assay type: in vivo; details: seven week treatment, 1.5 mg/day p.o.
Source text: B) Body weights of treated mice from (A). C) Uterine weights from mice in (A). Weights are reported as uterine weight (mg)/body weight (g). *, P<0.05 versus control. Graphs show mean SEM.
Since BTC and TTC-352 treatment result in growth of T47D:A18/neo cells in 2D culture (FIGS. 1C and 1E) and in 3D […] (FIG. 2A), we next sought to determine if BTC and TTC-352 could sustain the growth of T47D:A18/neo tumors in vivo. […] Additionally, no significant weight loss was observed over the seven week treatment period (FIG. 5B).

T47D:A18/PKCα cells [9] = assay: DNA growth assay (2D culture), T47D:A18/PKCα; assay type: cell-based; details: E2-free media, 1 nM, 10 nM, 100 nM
uteri [10] = assay: Uterine weights of mice (Example 11); assay type: in vivo; details: TTC-352 1.5 mg/day
T47D:A18/neo cells [11] = assay: DNA growth assay (2D culture), T47D:A18/neo; assay type: cell-based; details: only the higher concentration, 100 nM, E2 1 nM
ERα = molecular target: T1, ERα (Homo sapiens, UniProt P03372); assay: ERα localization in T47D:A18/PKCα tumors by immunofluorescence; assay type: in vivo, mice; details: immunofluorescence staining of tumors
T1 sequence (P03372 1-595): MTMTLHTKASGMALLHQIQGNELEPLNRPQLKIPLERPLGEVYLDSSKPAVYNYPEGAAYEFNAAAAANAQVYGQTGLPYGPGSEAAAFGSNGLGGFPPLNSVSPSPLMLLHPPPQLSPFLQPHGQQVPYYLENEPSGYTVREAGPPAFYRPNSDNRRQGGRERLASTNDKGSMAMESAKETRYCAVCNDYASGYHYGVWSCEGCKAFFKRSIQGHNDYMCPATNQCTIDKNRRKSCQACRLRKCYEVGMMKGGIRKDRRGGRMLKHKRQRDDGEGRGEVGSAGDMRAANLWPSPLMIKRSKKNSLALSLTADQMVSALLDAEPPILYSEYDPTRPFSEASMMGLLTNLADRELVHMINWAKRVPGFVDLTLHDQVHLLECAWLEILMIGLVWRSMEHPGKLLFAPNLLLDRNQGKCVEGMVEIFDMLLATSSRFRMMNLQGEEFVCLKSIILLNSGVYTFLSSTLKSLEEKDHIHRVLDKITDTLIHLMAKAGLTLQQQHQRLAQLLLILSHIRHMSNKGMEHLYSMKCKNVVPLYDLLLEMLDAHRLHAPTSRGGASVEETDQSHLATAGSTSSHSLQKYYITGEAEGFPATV
Experimental: Tumor immunofluorescence confocal microscopy and co-localization analysis. Tumor sections (4 μm) were cut from paraffin blocks and prepared for IF staining by deparaffinization and rehydration. Antigen retrieval was performed by incubating slides in Tris-EDTA (pH=9.0) buffer at 90° C. and allowed to cool at room temperature for 45 min. Slides were blocked with antibody diluent (DAKO, Carpinteria, Calif. USA) for 20 min followed by primary antibody at 1:100 in antibody diluent for 1 h at room temperature. Slides were incubated with fluorescence-conjugated secondary antibodies at 1:100 in antibody diluent for 45 min at room temperature followed by DAPI (4′, 6-diamidino-2-phenylindole [1 μg/mL], DAKO, Carpinteria, Calif. USA) for 15 min. Slides were mounted with Vectashield mounting media (Vector Laboratories, Burlingame, Calif. USA). Confocal analysis was performed with a Zeiss LSM 510 microscope (Carl Zeiss, Incorporated, North America, Thornwood, N.Y. USA).
We have previously reported the possible involvement of an extranuclear ER in E2-induced tumor regression (11, 15).

[12] = tested on: MCF-7 human mammary cancer cells; details: references 16-19; cited from earlier work
[13] = tested on: ERα transcriptional activity in T47D:A18/PKCα cells; assay: ERE-luciferase reporter assay, T47D:A18/PKCα; assay type: cell-based; details: for ER agonist character in T47D:A18/PKCα cells in vitro: ERE-luciferase, 1 nM, 10 nM, 100 nM
[14] = tested on: Ishikawa human endometrial cancer cells; details: references 16-19; cited from earlier work
[15] = juvenile female rats, after 3 days of drug administration; cited from earlier work
[16] = Plasma levels of BTC after oral administration to mice; assay type: in vivo; details: single oral dose 10 mg/kg, ovariectomized athymic nude mice
[17] = humans; cited from earlier work
T47D:A18/PKCα cells [18] = details: reference 11; cited from earlier work
uteri [19] = details: references 29-32, cited from earlier work

| Structure (SMILES) | T47D/PKCα xenograft tumor response [1] | uterine weights of ovariectomized mice (uteri [2]) | T47D:A18/neo average tumor size (T47D:A18/neo tumors) [cm^2] | T47D-Tam1 xenograft tumor response [4] | T47D:A18/neo colony growth in MATRIGEL (T47D:A18/neo cells [5]) | T47D:A18/PKCα colony formation in MATRIGEL (T47D:A18/PKCα cells [6]) | T47D:A18/PKCα tumor regression (T47D:A18/PKCα tumors) [%] | stimulation of growth of T47D:A18/neo xenograft tumors in vivo (T47D:A18/neo tumors) | body weight of treated mice [8] | proliferation of T47D:A18/PKCα cells (DNA content) (T47D:A18/PKCα cells [9]) | effect on the proliferation of T47D:A18/neo cells relative to E2 (T47D:A18/neo cells [11]) | ERα localization in regressing T47D:A18/PKCα tumors (ERα) | estrogen agonist/antagonist character in MCF-7 cells [12] | ER agonist character in T47D:A18/PKCα cells in vitro [13] | persistence of T47D:A18/PKCα tumor regression after end of treatment (T47D:A18/PKCα tumors) | T47D:A18/PKCα mean tumor size (T47D:A18/PKCα tumors) [cm^2] | estrogen agonist/antagonist character in Ishikawa cells [14] | potency in Ishikawa cells relative to E2 [14] | other results |
| --- | --- | --- | --- | --- | --- | --- | --- | --- | --- | --- | --- | --- | --- | --- | --- | --- | --- | --- | --- |
| CC/C(=C(\c1ccccc1)c1ccc(OCCN(C)C)cc1)c1ccccc1 [TAM, tamoxifen] | TAM-resistant | significant proliferative actions |  |  |  |  |  |  |  |  |  |  |  |  |  |  |  |  |  |
| C[C@]12CC[C@@H]3c4ccc(O)cc4CC[C@H]3[C@@H]1CC[C@@H]2O [E2, 17β-estradiol, reference compound] | growth is inhibited by E2 treatment | significant proliferative actions | ~0.35 | growth is inhibited by E2 treatment | stimulated | inhibited | ~98 |  |  |  |  |  |  |  |  |  |  |  | mean serum E2 level [3]: 379.5 pg/mL |
| Oc1ccc(Oc2sc3cc(O)ccc3c2-c2ccc(F)cc2)cc1 [TTC-352, 3-(4-fluorophenyl)-2-(4-hydroxyphenoxy)benzo[b]thiophen-6-ol] | tumor regression comparable to that of E2-treated tumors | no significant increase in the uterine weights | ~0.1 | tumor regression comparable to that of E2-treated tumors | stimulated | inhibited | ~70 | neither compound was able to significantly stimulate the growth | no effect | proliferated in the presence of BTC and TTC-352 at all concentrations tested | comparable to E2(1 nM) treatment | exit of ERα from the nucleus | estrogen agonist | act as ER agonists | sustained for at least four weeks post-treatment | ~0.18 | nanomolar estrogen agonists | three orders of magnitude below that of E2 | ERα transcriptional activity (ERE-luciferase) in T47D:A18/neo cells ([7]; 24 hours): increase in ERα transcriptional activity; uterine weight in mice (uteri [10]): did not increase uterine weight |
| Oc1ccc(-c2sc3cc(O)ccc3c2Oc2ccc(OCCN3CCCCC3)cc2)cc1 [DMA, Desmethylarzoxifene] |  |  |  |  |  |  |  |  |  |  |  |  |  |  |  |  |  |  | remaining drug in plasma [15]: not observed above detection limits |
| Oc1ccc(-c2cc3ccc(O)cc3s2)cc1 [BTC, 2-(4-hydroxyphenyl)benzo[b]thiophen-6-ol] |  | no significant increase in the uterine weights | ~0.04 |  | stimulated | inhibited | ~88 | neither compound was able to significantly stimulate the growth | no effect | proliferated in the presence of BTC and TTC-352 at all concentrations tested | comparable to E2(1 nM) treatment | exit of ERα from the nucleus | estrogen agonist | act as ER agonists | sustained for at least four weeks post-treatment | ~0.07 | nanomolar estrogen agonists | three orders of magnitude below that of E2 | ERα transcriptional activity (ERE-luciferase) in T47D:A18/neo cells [7]: increase in ERα transcriptional activity; concentration at 6 h ([16]; female, mouse, plasma, 6 h): 10 ng/mL; peak plasma concentration ([16]; at 30 min): 40 ng/mL; ERE-luciferase induction in T47D:A18/PKCα cells compared with T47D:A18/neo cells ([13]; 100 nM and 10 nM): more sensitive than T47D:A18/neo cells |
| O=C(c1ccc(OCCN2CCCCC2)cc1)c1c(-c2ccc(O)cc2)sc2cc(O)ccc12 [RAL, raloxifene] | caused tumor regression, however, drug withdrawal led to relapse |  |  |  |  |  | ~50 |  |  |  |  |  | estrogen antagonist |  | failure of RAL-induced regression to persist after drug withdrawal |  | estrogen antagonist |  | oral clearance [17]: 441 kg⁻¹ h⁻¹; T47D:A18/PKCα MATRIGEL colony formation (previously reported) (T47D:A18/PKCα cells [18]): unable to inhibit MATRIGEL colony formation; luminal epithelial cell thickness in ovariectomized rats (uteri [19]; doses up to 10 mg/kg/day): did not increase luminal epithelial cell thickness; uterine weight in ovariectomized rats (uteri [19]; minimally effective dose): did not increase uterine weight |
